Literature values as cited in patent US20120251462A1, “Agent For Smoker Dehabituation” (Cognis IP Management GmbH, priority 2011, published 2012).

Test system: nACh receptors
Details: exceeds affinity of nicotine

## Clc1ccc(C2CC3CCC2N3)cn1 (stereo not shown) [Epibatidin]
  affinity for nACh receptors relative to nicotine: 120 fold
